Measurements as given in patent publication US20040248887A1, “Inhibitors of cathepsin S” (IRM LLC, priority 2003, published 2004).
Where two headings read alike, the source gives them in different places.

What was measured:
Type in all cases: biochemical
Cathepsin K = molecular target: T1, Cathepsin K (Homo sapiens, UniProt P43235); test: Cathepsin K inhibition, fluorogenic peptide substrate kinetic assay; conditions: Table III; Cathepsin K inhibition constant, pH5.5; read-out: Ki Cat. K
T1 sequence (P43235 115-329): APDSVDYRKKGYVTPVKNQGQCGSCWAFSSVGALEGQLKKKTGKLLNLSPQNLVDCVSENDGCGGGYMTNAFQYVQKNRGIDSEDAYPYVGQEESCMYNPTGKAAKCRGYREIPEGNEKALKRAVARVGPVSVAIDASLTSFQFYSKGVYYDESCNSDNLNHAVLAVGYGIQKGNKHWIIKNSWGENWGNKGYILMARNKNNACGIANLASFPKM
Method: (§1) The optimal substrate for cathepsin K, acetyl-lysine-histidine-proline-lysine-amino carbamoyl coumarin, was identified from screening a combinatorial library of fluorogenic peptide substrates (Harris, J. L., B. J. Backes, et al., Proc Natl Acad Sci U S A 2000, 97(14), 7754-9). Kinetic measurements are performed in a total reaction volume of 30 μl in 384-well microtiter plates. […] The reactions are initiated by adding the substrate, acetyl-lysine-histidine-proline-lysine-amino carbamoyl coumarin, to a final concentration of 40 μM. The rate of substrate hydrolysis is measured by monitoring the increase in fluorescence at an excitation wavelength of 380 nm and an emission wavelength of 450 nm that results from cleavage of the aniline bond in the substrate by the enzyme. The apparent inhibition constants for the compounds are determined from the enzyme progress curves (Kuzmic, P., K. C. Elrod, et al., Anal Biochem 2000, 286(1), 45-50) and are then used to calculate the inhibition constants for competitive inhibitors.

Cathepsin S = Cathepsin S (Homo sapiens, UniProt P25774); test: Cathepsin S inhibition, fluorogenic peptide substrate kinetic assay; conditions: Cathepsin S inhibition constant, pH5.5, read-out: Ki Cat. S
Sequence of Cathepsin S (P25774 115-331, species assumed): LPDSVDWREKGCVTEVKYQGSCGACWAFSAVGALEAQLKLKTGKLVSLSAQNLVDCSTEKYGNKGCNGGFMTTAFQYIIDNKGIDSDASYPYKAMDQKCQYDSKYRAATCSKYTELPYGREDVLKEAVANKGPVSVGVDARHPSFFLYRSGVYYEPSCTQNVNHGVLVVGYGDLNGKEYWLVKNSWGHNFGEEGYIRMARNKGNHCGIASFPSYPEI
In short: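 Reactions were started with 50 μM (final) acetyl-His-Pro-Val-Lys-aminocarbamoylcoumarin, and hydrolysis was followed by fluorescence (ex 380/em 450 nm). Apparent inhibition constants from enzyme progress curves were converted to Ki for competitive inhibitors using substrate concentration and Km.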

Cathepsin L = Cathepsin L (Homo sapiens, UniProt P07711); test: Cathepsin L inhibition, fluorogenic peptide substrate kinetic assay; conditions: Table III; Cathepsin L inhibition constant, pH5.5; read-out: Ki Cat. L
Sequence of Cathepsin L (P07711 114-333, species assumed): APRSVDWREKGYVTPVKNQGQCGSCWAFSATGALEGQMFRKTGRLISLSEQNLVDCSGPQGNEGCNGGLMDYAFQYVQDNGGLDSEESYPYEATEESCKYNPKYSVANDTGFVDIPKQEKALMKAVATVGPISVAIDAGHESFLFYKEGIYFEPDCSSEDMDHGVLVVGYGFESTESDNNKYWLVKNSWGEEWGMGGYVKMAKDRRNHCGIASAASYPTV
Method: as §1, with “Kinetic” for “The optimal substrate for cathepsin K, acetyl-lysine-histidine-proline-lysine-amino carbamoyl coumarin, was identified from screening a combinatorial library of fluorogenic peptide substrates (Harris, J. L., B. J. Backes, et al., Proc Natl Acad Sci U S A 2000, 97(14), 7754-9). Kinetic”, “acetyl-histidine-lysine-phenylalanine-lysine-amino” for “acetyl-lysine-histidine-proline-lysine-amino”, “20” for “40”

Cathepsin B = Cathepsin B (Homo sapiens, UniProt P07858); test: Cathepsin B inhibition, fluorogenic peptide substrate kinetic assay; conditions: Table III; Cathepsin B inhibition constant, pH5.5; read-out: Ki Cat. B
Method: The optimal substrate for cathepsin B, acetyl-histidine-proline-valine-lysine-amino carbamoyl coumarin, was identified from screening a combinatorial library of fluorogenic peptide substrates (Harris, J. L., B. J. Backes, et al., Proc Natl Acad Sci USA 2000, 97(14), 7754-9). Kinetic measurements are performed in a total reaction volume of 30 μl in 384-well microtiter plates. Cathepsin B, at a final concentration of 1.5 nM (active site), is incubated with the compounds at twelve varying concentrations in a buffer containing 100 mM NaAc (pH5.5), 1 mM EDTA, 100 mM NaCl, 0.01% Brij-35 for 20 minutes at room temperature. Control reactions in the absence of inhibitor are performed in replicates of 24. The reactions are initiated by adding the substrate, acetyl-histidine-proline-valine-lysine-amino carbamoyl coumarin, to a final concentration of 10 μM. The rate of substrate hydrolysis is measured by monitoring the increase in fluorescence at an excitation wavelength of 380 nm and an emission wavelength of 450 nm that results from cleavage of the aniline bond in the substrate by the enzyme. The apparent inhibition constants for the compounds are determined from the enzyme progress curves (Kuzmie, P., K. C. Elrod, et al., Anal Biochem 2000, 286(1), 45-50) and are then used to calculate the inhibition constants for competitive inhibitors.

| Ki (Cathepsin K) [µM] | Ki (Cathepsin S; Table II) [µM] | Ki (Cathepsin S; Table III) [µM] | Ki (Cathepsin L) [µM] | Ki (Cathepsin B) [µM] | SMILES |
| --- | --- | --- | --- | --- | --- |
| < 10 | < 0.1 | < 0.1 | > 10 | > 10 | C[C@@H](CNc1ccc(OC(F)(F)F)cc1)NC(=O)[C@H](CC1CCCC1)NC(=O)O[C@@H]1CCOC1 [Compound 191, (S,S)-{2-Cyclopentyl-1-[1-methyl-2-(4-trifluoromethoxy-phenylamino)-ethylcarbamoyl]-ethyl}-carbamic acid tetrahydrofuran-3-(R)-yl ester] |
| < 10 | < 1 | < 1 | < 10 | < 10 | C[C@@H](CNc1ccccc1C(N)=O)NC(=O)[C@H](CC1CCCCC1)NC(=O)c1ccc(-c2cccc(F)c2)o1 [Compound 121, 5-(3-Fluoro-phenyl)-furan-2-carboxylic acid {1-(S)-[2-(2-carbamoyl-phenylamino)-1-(S)-methyl-ethylcarbamoyl]-2-cyclohexyl-ethyl}-amide] |
| > 10 | < 0.1 | < 0.1 | < 10 | > 10 | O=C(N[C@H](C(=O)N[C@@H](COCc1ccccc1)CN1CCc2cc(F)ccc21)c1ccc(Cl)cc1Cl)c1ccc(F)c(F)c1 [Compound 211, N-(S)-((3-(benzyloxy)-1-(5-fluoroindolin-1-yl)propan-2-(R)-ylcarbamoyl)(2,4-dichlorophenyl)methyl)-3,4-difluorobenzamide] |
| > 10 | < 0.1 | < 0.1 | < 10 | > 10 | C[C@@H](CNc1ccc(OC(F)(F)F)cc1)NC(=O)[C@H](CC1CCCCC1)NS(=O)(=O)c1cccc(Cl)c1 [Compound 181, (S,S)-2-(3-Chloro-benzenesulfonylamino)-3-cyclohexyl-N-[1-methyl-2-(4-trifluoromethoxy-phenylamino)-ethyl]-propionamide] |
| – | – | – | – | > 10 | COc1ccc(NCC(C)NC(=O)[C@H](CC(C)C)NC(=O)c2cccc(C)c2)cc1 (mixture of isomers) [Compound 21, N-{1-(S)-[2-(4-Methoxy-phenylamino)-1-methyl-ethylcarbamoyl]-3-methyl-butyl}-3-methyl-benzamide] |
| < 10 | < 1 | < 1 | < 10 | > 10 | COC(=O)c1cccc(NC[C@H](C)NC(=O)[C@H](CC2CCCCC2)NC(=O)c2ccc(-c3cccc(F)c3)o2)c1 [Compound 110, 3-[2-(S)-(3-Cyclohexyl-2-(S)-{[5-(3-fluoro-phenyl)-furan-2-carbonyl]-amino}-propionylamino)-propylamino]-benzoic acid methyl ester] |
| < 1 | < 0.1 | < 0.1 | > 10 | > 10 | C[C@@H](CNc1cccc(C(N)=O)c1)NC(=O)[C@H](CC(C)(C)C)NC(=O)c1ccc(-c2cccc(F)c2)o1 [Compound 131, 5-(3-Fluoro-phenyl)-furan-2-carboxylic acid {1-(S)-[2-(3-carbamoyl-phenylamino)-1-(S)-methyl-ethylcarbamoyl]-3,3-dimethyl-butyl}-amide] |
| > 10 | < 0.1 | < 0.1 | < 10 | > 10 | C[C@@H](CNc1ccc(OC(F)(F)F)cc1)NC(=O)[C@H](CC1CCCCC1)NC(=O)c1cnn(-c2cccc(F)c2)c1 [Compound 141, 1-(3-Fluoro-phenyl)-1H-pyrazole-4-carboxylic acid {2-cyclohexyl-1-(S)-[1-(S)-methyl-2-(4-trifluoromethoxy-phenylamino)-ethylcarbamoyl]-ethyl}-amide] |
| < 10 | < 0.1 | < 0.1 | < 10 | > 10 | CS(=O)(=O)Nc1ccc(C(=O)N[C@@H](CC2CCCCC2)C(=O)NCCN2CCc3cc(F)ccc32)cc1 [Compound 81, N-(S)-{2-cyclohexyl-1-[2-(5-fluoro-2,3-dihydro-indol-1-yl)-ethylcarbamoyl]-ethyl}-4-methanesulfonylamino-benzamide] |
| > 10 | < 0.1 | < 0.1 | < 10 | > 10 | Cc1cccc(S(=O)(=O)N[C@@H](CC2CCCCC2)C(=O)N[C@@H](C)CN2CCc3cc(F)ccc32)c1 [Compound 251, (S,S)-3-Cyclohexyl-N-[2-(5-fluoro-2,3-dihydro-indol-1-yl)-1-methyl-ethyl]-2-(toluene-3-sulfonylamino)-propionamide] |
| < 10 | < 0.1 | < 0.1 | < 0.1 | > 10 | Cc1cccc(C(=O)N[C@@H](CC2CCCCC2)C(=O)NCCN2CCc3cc(F)ccc32)c1 [Compound 71, N—(S)-{2-cyclohexyl-1-[2-(5-fluoro-2,3-dihydro-indol-1-yl)-ethylcarbamoyl]-ethyl}-3-methyl-benzamide] |
| – | – | – | – | > 10 | COc1cccc(C(=O)N[C@@H](CCC2CCCCC2)C(=O)N[C@H](CN2CCc3cc(F)ccc32)c2ccccc2)c1 [Compound 51, (S,S)-N-{3-Cyclohexyl-1-[2-(5-fluoro-2,3-dihydro-indol-1-yl)-1-phenyl-ethylcarbamoyl]-propyl}-3-methoxy-benzamide] |
| > 10 | < 1 | < 1 | < 10 | > 10 | Cc1nn(C)c(Cl)c1S(=O)(=O)N[C@@H](CC1CCCCC1)C(=O)NCCN1CCc2cc(F)ccc21 [Compound 241, (S)-2-(5-Chloro-1,3-dimethyl-1H-pyrazole-4-sulfonylamino)-3-cyclohexyl-N-[2-(5-fluoro-2,3-dihydro-indol-1-yl)-ethyl]-propionamide] |
| – | < 0.1 | – | – | – | C[C@@H](CNc1ccc(S(C)(=O)=O)cc1)NC(=O)[C@H](CC1CCCCC1)NC(=O)c1ccc(-c2cccc(F)c2)o1 [Compound 89, 5-(3-Fluoro-phenyl)-furan-2-carboxylic acid {2-cyclohexyl-1-(S)-[2-(4-methanesulfonyl-phenylamino)-1-(S)-methyl-ethylcarbamoyl]-ethyl}-amide] |
| – | < 10 | – | – | – | COc1cccc(C(=O)N[C@@H](CCC2CCCCC2)C(=O)NCCN2CCc3ccc(F)cc32)c1 [Compound 10, (S)-N-{3-Cyclohexyl-1-[2-(6-fluoro-2,3-dihydro-indol-1-yl)-ethylcarbamoyl]-propyl}-3-methoxy-benzamide] |
| – | < 0.1 | – | – | – | COc1cccc(C(=O)N[C@@H](CC2CCCCC2)C(=O)N[C@@H](COCc2ccccc2)CN2CCc3cc(F)ccc32)c1 [Compound 149, N-{1-(S)-[1-(R)-Benzyloxymethyl-2-(5-fluoro-2,3-dihydro-indol-1-yl)-ethylcarbamoyl]-2-cyclohexyl-ethyl}-3-methoxy-benzamide] |
| – | < 1 | – | – | – | Cc1cccc(C(=O)N[C@@H](Cc2ccccc2Cl)C(=O)NCCN2CCc3cc(F)ccc32)c1 [Compound 195, N-((S)-1-(2-(5-fluoroindolin-1-yl)ethylcarbamoyl)-2-(2-chlorophenyl)ethyl)-3-methylbenzamide] |
| – | < 1 | – | – | – | CC(C)(C)C[C@H](NC(=O)OCc1ccccc1)C(=O)N[C@@H](CC(=O)O)CN1CCc2cc(F)ccc21 [Compound 159, 3-(S)-(2-(S)-Benzyloxycarbonylamino-4,4-dimethyl-pentanoylamino)-4-(5-fluoro-2,3-dihydro-indol-1-yl)-butyric acid] |
